{"source": "patent US9765016B2", "about": "“S1P modulating agents” (BIOGEN MA INC., priority 2013, dated 2017)", "target": "T1, human S1P5 (Homo sapiens, UniProt Q9H228)", "T1 construct": "host or cells: recombinant CHEM cells", "T1 sequence (Q9H228 whole entry)": "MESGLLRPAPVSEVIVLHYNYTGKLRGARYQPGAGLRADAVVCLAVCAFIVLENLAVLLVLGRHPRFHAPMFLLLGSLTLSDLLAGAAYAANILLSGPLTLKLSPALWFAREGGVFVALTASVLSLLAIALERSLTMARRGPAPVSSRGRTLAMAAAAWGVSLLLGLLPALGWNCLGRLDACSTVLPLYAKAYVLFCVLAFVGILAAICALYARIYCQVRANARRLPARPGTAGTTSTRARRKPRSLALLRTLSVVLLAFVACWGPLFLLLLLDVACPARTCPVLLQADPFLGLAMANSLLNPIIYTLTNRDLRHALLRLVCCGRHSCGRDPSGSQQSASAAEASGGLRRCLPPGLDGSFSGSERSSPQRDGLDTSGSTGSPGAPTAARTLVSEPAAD", "assay": "Calcium flux assay, antagonist assay format (S1P receptor activity assay)", "type": "cell-based", "method": "Agonist percentage activation determinations were obtained by assaying sample compounds and referencing the Emax control for each receptor profiled. Antagonist percentage inhibition determinations were obtained by assaying sample compounds and referencing the control EC80 wells for each receptor profiled.\nSample compounds were plated in an eight-point, four-fold dilution series in duplicate with a top concentration of 10 μM. The concentrations described here reflect the final concentration of the compounds during the antagonist assay.\nUsing the EC80 values determined during the agonist assay, stimulated all pre-incubated sample compound and reference antagonist (if applicable) wells with EC80 of reference agonist."}
{"smiles": "Cc1cc(O[C@H]2CC[C@@H]([Si](C)(C)C)CC2)c(CN2CCC(C(=O)O)CC2)c2ccccc12", "note": "[Example 25, 1-((4-methyl-2-((cis-4-(trimethylsilyl)cyclohexyl)oxy)naphthalen-1-yl)methyl)piperidine-4-carboxylic acid]", "values": [{"measurement": "IC50", "value": "≤ 100", "unit": "nM"}]}
